Here are results for three compounds from article PMC3666173 (Basic research in cardiology, 2012).

No end group written: not given here.

Assay [1] addresses Cx43 hemichannels (C6-Cx43 cells) (Homo sapiens, UniProt P17302). As to the kind of experiment: [Ca2+]i-triggered. In kind it is cell-based.
The next assay has as its system C6-Cx43 cells. As to conditions: A23187 2.2 μM, 5 min; ref [19], [49]; cited from earlier work.
For assay [2], the system named is pannexin-1 (Panx1) hemichannels (C6-Panx1 cells). As to the kind of experiment: High [K+]e-triggered ATP release in C6-Panx1 cells. As to conditions: [K+]e = 143 mM, carbenoxolone 10 μM, 30 min, 10Panx1 200 μM. The assay is classed as cell-based.

Chain of Cx43 hemichannels (C6-Cx43 cells) (P17302 whole entry): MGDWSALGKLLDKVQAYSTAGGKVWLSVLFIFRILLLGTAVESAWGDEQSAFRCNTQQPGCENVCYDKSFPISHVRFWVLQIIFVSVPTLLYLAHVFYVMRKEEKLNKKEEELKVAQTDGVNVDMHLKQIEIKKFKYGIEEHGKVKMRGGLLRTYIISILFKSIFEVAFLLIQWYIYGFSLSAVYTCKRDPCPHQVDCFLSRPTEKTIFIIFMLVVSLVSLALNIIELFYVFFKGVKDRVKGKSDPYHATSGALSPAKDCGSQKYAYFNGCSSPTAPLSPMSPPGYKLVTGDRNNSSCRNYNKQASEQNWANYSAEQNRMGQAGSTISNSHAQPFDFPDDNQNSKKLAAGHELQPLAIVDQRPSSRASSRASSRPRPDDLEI

YGRKKRRQRRRKQIEIKKFK: the IC50 in assay [1] was around 7 µM.

With `CNc1ccc2oc(C[C@H]3O[C@@]4(CC[C@H]3C)O[C@H]([C@H](C)C(=O)c3ccc[nH]3)[C@H](C)C[C@H]4C)nc2c1C(=O)O` [A23187], in assay [1] (Ca2+ ionophore, 2.2 μM, 5 min, C6-Cx43 vs C6-pLTR, n = 12), the “[Ca2+]i-triggered ATP release” value is “triggered significant ATP release in C6-Cx43 but not in C6 cells stably transfected with the empty vector”. In addition, the “transient elevation of [Ca2+]i” value with C6-Cx43 cells is reported as ~ 500 nM.

For `CC1(C)[C@@H](OC(=O)CCC(=O)O)CC[C@]2(C)[C@H]3C(=O)C=C4[C@@H]5C[C@@](C)(C(=O)O)CC[C@]5(C)CC[C@@]4(C)[C@]3(C)CC[C@@H]12` [carbenoxolone], the “high [K+]e-triggered ATP release” value in assay [2] (n = 12) is reported as “suppressed”; in assay [2] (n = 12, listed as Cbx) it was “blocked”.

The IC50 is the point on the concentration scale where inhibition reaches its midpoint.
